Reference: patent US20130280343A1, “Food Products Derived From Cannabinoid-Administered Livestock” (priority 2012, published 2013)

Experiments:
mice = conditions: orally administered; cited from earlier work
[1] = tested on: mice injected with 5-Hydroxytryptamine (a nociceptive agent); conditions: orally administered; cited from earlier work
[2] = tested on: free range broiler chickens; assay: dimethylheptylpyran capsules orally administered to free range broiler chickens; assay type: in vivo; conditions: 1 μg in cod liver oil capsules, twice-daily oral
Method: In a final embodiment of the present invention, soft gel capsules containing 1 μg of dimethylheptylpyran dissolved in cod liver oil are twice-daily orally administered to free range broiler chickens. Dimethylheptylpyran is an extremely potent cannabinoid receptor agonist.

humans [3] = conditions: orally administered; cited from earlier work
[4] = accumulation of Δ^9-THC in milk of dairy water buffalo grazing Cannabis indica Himalaya Gold; assay type: in vivo; conditions: roughly 400 g Δ^9-THC orally per day, 20 L milk per day
Text: In a second embodiment of the present invention, dairy water buffalo are grazed in a pasture cultivated for their consumption which contains cereals, legumes, and Cannabis indica “Himalaya Gold” (a hardy, outdoor cultivar of Cannabis). The approximate Δ^9-THC, CBN, and CBD levels of the Himalaya Gold Cannabis cultivar are 10.0%, 1.0%, and 0.3%, respectively. The animals are left to graze according to their preference, and all three types of plants are consumed in significant quantity. Particularly, the water buffalo consume about 32 kg of raw plant material per day, of which an average of 4 kg is Cannabis. Thus, roughly 400 g of Δ^9-THC is orally administered to the animals each day.
The cannabinoids present in the Himalaya Gold Cannabis induce physiological effects which affect the composition of the water buffalo's milk. More specifically, several fat-soluble cannabinoids, including Δ^9-THC and 11-Hydroxy-Δ^9-tetrahydrocannabinol (11-OH-Δ^9-THC; an active metabolite of Δ^9-THC), accumulate in the milk during lactogenesis. The cannabinoid-containing raw milk is then harvested from the water buffalo by use of a rotary parlor milking station. […]

humans [5] = assay: lowest observed effect level (LOEL) for psychoactive effects in humans; assay type: in vivo; conditions: orally administered
Method: Contrasting their extremely low toxicity, cannabinoids generally have very low effective doses. […] In humans, the lowest observed effect level (LOEL) for psychoactive effects induced by orally administered Δ^9-THC is 0.04 mg/kg, or 3.2 mg for the average 80 kg adult human. As a result, the therapeutic indices (LD50/ED50) of most cannabinoids are astoundingly high. It would be extremely difficult, if not impossible, for a human or animal to suffer permanent damage due to an intake of cannabinoids, absent a targeted effort to cause such damage.

[6] = accumulation of Δ^9-THC in adipose tissue of finishing hogs given Cannabis tincture in water; conditions: 100 mg Δ^9-THC orally each day

C=C(C)[C@@H]1CCC(C)=C[C@H]1c1c(O)cc(CCCCC)cc1O [CBD, cannabidiol]
median lethal dose (LD50) (mice): 13,500 mg/kg

CCCCCc1cc(O)c2c(c1)OC(C)(C)c1ccc(C)cc1-2 [CBN, cannabinol]
median effective dose (ED50) for antinociception [1]: 46.2 mg/kg
median lethal dose (LD50) (mice): 12,700 mg/kg

CCCCCC(C)C(C)c1cc(O)c2c(c1)OC(C)(C)C1=C2CC(C)CC1 (stereo not shown) [dimethylheptylpyran]
calming effect [2]: significantly calms the chickens
effect on aggressive behavior [2]: inhibits aggressive behavior

[Cl-].[Na+] [sodium chloride]
median lethal dose (LD50) (mice): 4,000 mg/kg

CCCCCc1cc(O)c2c(c1)OC(C)(C)[C@@H]1CCC(C)=C[C@@H]21 [Δ^9-THC, delta-9-tetrahydrocannabinol]
lowest observed effect level (LOEL) for psychoactive effects (humans [3]): 0.04 mg/kg
average transfer rate into milk [4]: 0.15%
Δ^9-THC content of milk [4]: around 30 mg per L
median effective dose (ED50) for antinociception [1]: 1.0 mg/kg
median lethal dose (LD50) (mice): 21,600 mg/kg
LOEL for psychoactive effects, for the average 80 kg adult human (humans [5]): 3.2 mg
average storage rate in adipose tissue [6]: 0.1%
